ChEMBL document CHEMBL1136309, “Synthesis and SAR studies of potent HIV protease inhibitors containing novel dimethylphenoxyl acetates as P2 ligands” (Bioorg Med Chem Lett, 2003)
pEC50: −log10 of the molar value.

Assays:
[1] = system: Human immunodeficiency virus 1; test: Antiviral activity was tested in absence of human serum in MT-4 cells (in vitro); assay type: functional, organism-based; details: Human immunodeficiency virus 1, MT4
[2] = system: Human immunodeficiency virus 1; test: Antiviral activity was tested in presence of 50% human serum in MT-4 cells (in vitro); assay type: functional, organism-based; details: Human immunodeficiency virus 1, MT4
[3] = target: Human immunodeficiency virus type 1 protease (Human immunodeficiency virus 1) (UniProt Q72874); test: Inhibitory activity against HIV protease at a compound concentration of 0.5 nM in MT-4 cells; assay type: cell-based; details: MT4
[4] = target: Human immunodeficiency virus type 1 protease (Human immunodeficiency virus 1) (UniProt Q72874); test: Inhibitory activity against HIV protease at a compound concentration of 1 nM in MT-4 cells; assay type: cell-based; details: MT4
[5] = target: Human immunodeficiency virus type 1 protease (Human immunodeficiency virus 1) (UniProt Q72874); test: Inhibitory activity against HIV protease at a compound concentration of 31 nM in MT-4 cells; assay type: cell-based; details: MT4
[6] = target: Human immunodeficiency virus type 1 protease (Human immunodeficiency virus 1) (UniProt Q72874); test: Inhibitory activity against HIV protease at a compound concentration of 12 nM in MT-4 cells; assay type: cell-based; details: MT4
[7] = target: Human immunodeficiency virus type 1 protease (Human immunodeficiency virus 1) (UniProt Q72874); test: Inhibitory activity against HIV protease at a compound concentration of 2.4 nM in MT-4 cells; assay type: cell-based; details: MT4

| Compound | pEC50 [1] | pEC50 [2] | inhibition [3] [%] | inhibition [4] [%] | inhibition [5] [%] | inhibition [6] [%] | inhibition [7] [%] |
| --- | --- | --- | --- | --- | --- | --- | --- |
| Cc1cc(N)cc(C)c1OCC(=O)N[C@@H](Cc1ccccc1)C[C@H](O)[C@H](Cc1ccccc1)NC(=O)O[C@H]1COC2OCCC21 (stereo not given in full) | 8.05 | 7.51 | 78 | – | – | – | – |
| Cc1cccc(CO)c1OCC(=O)N[C@@H](Cc1ccccc1)C[C@H](O)[C@H](Cc1ccccc1)NC(=O)O[C@H]1COC2OCCC21 (stereo not given in full) | 7.43 | 6.71 | 88 | – | – | – | – |
| Cc1cc(C)c(OCC(=O)N[C@@H](Cc2ccccc2)C[C@H](O)[C@H](Cc2ccccc2)NC(=O)O[C@H]2COC3OCCC32)c(C)c1 (stereo not given in full) | 6.69 | 6.32 | 82 | – | – | – | – |
| Cc1cc2[nH]c(O)nc2c(C)c1OCC(=O)N[C@@H](Cc1ccccc1)C[C@H](O)[C@H](Cc1ccccc1)NC(=O)O[C@H]1COC2OCCC21 (stereo not given in full) | 6.01 | 5.51 | 85 | – | – | – | – |
| Cc1cc(N)cc(C)c1SCC(=O)N[C@@H](Cc1ccccc1)C[C@H](O)[C@H](Cc1ccccc1)NC(=O)O[C@H]1COC2OCCC21 (stereo not given in full) | 5.24 | 5.98 | – | 56 | – | – | – |
| O=C(COc1ccccc1)N[C@@H](Cc1ccccc1)C[C@H](O)[C@H](Cc1ccccc1)NC(=O)O[C@H]1COC2OCCC21 (stereo not given in full) | – | – | 61 | – | – | – | – |
| Cc1cccc(C)c1NCC(=O)N[C@@H](Cc1ccccc1)C[C@H](O)[C@H](Cc1ccccc1)NC(=O)O[C@H]1COC2OCCC21 (stereo not given in full) | 6.60 | 5.67 | 69 | – | – | – | – |
| Cc1cc(N)cc(C)c1[S+]([O-])CC(=O)N[C@@H](Cc1ccccc1)C[C@H](O)[C@H](Cc1ccccc1)NC(=O)O[C@H]1COC2OCCC21 (stereo not given in full) | 4.43 | 4.01 | – | – | 50 | – | – |
| Cc1cc(OCCN2CCOCC2)cc(C)c1OCC(=O)N[C@@H](Cc1ccccc1)C[C@H](O)[C@H](Cc1ccccc1)NC(=O)O[C@H]1COC2OCCC21 (stereo not given in full) | 7.62 | 6.47 | 77 | – | – | – | – |
| Cc1cc(NS(C)(=O)=O)cc(C)c1OCC(=O)N[C@@H](Cc1ccccc1)[C@@H](O)C[C@H](Cc1ccccc1)NC(=O)O[C@H]1COC2OCCC21 (stereo not given in full) | – | – | – | – | – | 50 | – |
| Cc1cccc(C)c1N(C)CC(=O)N[C@@H](Cc1ccccc1)C[C@H](O)[C@H](Cc1ccccc1)NC(=O)O[C@H]1COC2OCCC21 (stereo not given in full) | 5.54 | 4.52 | – | – | – | – | 50 |
| Cc1cc(F)cc(C)c1OCC(=O)N[C@@H](Cc1ccccc1)C[C@H](O)[C@H](Cc1ccccc1)NC(=O)O[C@H]1COC2OCCC21 (stereo not given in full) | 6.57 | 6.06 | 69 | – | – | – | – |
| Cc1cc2nsnc2c(C)c1OCC(=O)N[C@@H](Cc1ccccc1)C[C@H](O)[C@H](Cc1ccccc1)NC(=O)O[C@H]1COC2OCCC21 (stereo not given in full) | 6.21 | 5.25 | 71 | – | – | – | – |
| Cc1cccc(C)c1OCC(=O)N[C@@H](Cc1ccccc1)[C@@H](O)C[C@H](Cc1ccccc1)NC(=O)OC1COC2OCCC12 (stereo not given in full) | 7.21 | 6.57 | 91 | – | – | – | – |
| Cc1cc(C)c(OCC(=O)N[C@@H](Cc2ccccc2)C[C@H](O)[C@H](Cc2ccccc2)NC(=O)O[C@H]2COC3OCCC32)c(C)c1N (stereo not given in full) | 7.64 | 6.93 | 74 | – | – | – | – |
| Cc1cc(N)cc(C)c1S(=O)(=O)CC(=O)N[C@@H](Cc1ccccc1)C[C@H](O)[C@H](Cc1ccccc1)NC(=O)O[C@H]1COC2OCCC21 (stereo not given in full) | 4.99 | 4.21 | – | – | – | 50 | – |
| Cc1cccc(C)c1OCC(=O)N[C@@H](Cc1ccccc1)C[C@H](O)[C@H](Cc1ccccc1)NC(=O)O[C@H]1COC2OCCC21 (stereo not given in full) | 7.39 | 6.52 | 87 | – | – | – | – |
| Cc1ccnc(C)c1OCC(=O)N[C@@H](Cc1ccccc1)C[C@H](O)[C@H](Cc1ccccc1)NC(=O)O[C@H]1COC2OCCC21 (stereo not given in full) | 6.74 | 6.36 | 49 | – | – | – | – |
| Cc1cc(O)cc(C)c1OCC(=O)N[C@@H](Cc1ccccc1)C[C@H](O)[C@H](Cc1ccccc1)NC(=O)O[C@H]1COC2OCCC21 (stereo not given in full) | 7.49 | 7.12 | 82 | – | – | – | – |

| Compound | pEC50 [1] | pEC50 [2] | inhibition [3] [%] | inhibition [4] [%] | inhibition [5] [%] | inhibition [6] [%] | inhibition [7] [%] |
| --- | --- | --- | --- | --- | --- | --- | --- |
| Cc1cc(Cl)c(N)c(C)c1OCC(=O)N[C@@H](Cc1ccccc1)C[C@H](O)[C@H](Cc1ccccc1)NC(=O)O[C@H]1COC2OCCC21 (stereo not given in full) | 7.21 | 6.18 | 86 | – | – | – | – |
| Cc1cc(N2COCC2=O)cc(C)c1OCC(=O)N[C@@H](Cc1ccccc1)C[C@H](O)[C@H](Cc1ccccc1)NC(=O)O[C@H]1COC2OCCC21 (stereo not given in full) | 6.67 | 6.03 | 74 | – | – | – | – |
| Cc1ccccc1OCC(=O)N[C@@H](Cc1ccccc1)C[C@H](O)[C@H](Cc1ccccc1)NC(=O)O[C@H]1COC2OCCC21 (stereo not given in full) | – | – | 84 | – | – | – | – |
| Cc1cc(N(C)C)cc(C)c1OCC(=O)N[C@@H](Cc1ccccc1)C[C@H](O)[C@H](Cc1ccccc1)NC(=O)O[C@H]1COC2OCCC21 (stereo not given in full) | 6.80 | 5.68 | 43 | – | – | – | – |
| Cc1cc2[nH]nnc2c(C)c1OCC(=O)N[C@@H](Cc1ccccc1)C[C@H](O)[C@H](Cc1ccccc1)NC(=O)O[C@H]1COC2OCCC21 (stereo not given in full) | 6.73 | 5.73 | 67 | – | – | – | – |
| Cc1cc(N)cc(C)c1OCC(=O)N[C@@H](Cc1ccccc1)C[C@H](O)[C@H](Cc1ccccc1)NC(=O)OC1COC2OCCC12 (stereo not given in full) | 7.92 | 7.17 | 70 | – | – | – | – |
| CNC(=O)c1cc(C)c(OCC(=O)N[C@@H](Cc2ccccc2)C[C@H](O)[C@H](Cc2ccccc2)NC(=O)O[C@H]2COC3OCCC32)c(C)c1 (stereo not given in full) | 6.66 | 6.27 | – | – | – | – | – |
| CNc1cc(C)c(OCC(=O)N[C@@H](Cc2ccccc2)C[C@H](O)[C@H](Cc2ccccc2)NC(=O)OC2COC3OCCC23)c(C)c1 (stereo not given in full) | 6.95 | 6.29 | 64 | – | – | – | – |
| Cc1ccc(O)c(C)c1OCC(=O)N[C@@H](Cc1ccccc1)C[C@H](O)[C@H](Cc1ccccc1)NC(=O)O[C@H]1COC2OCCC21 (stereo not given in full) | 8.15 | 7.01 | 92 | – | – | – | – |
| Cc1cc(C(N)=O)cc(C)c1OCC(=O)N[C@@H](Cc1ccccc1)C[C@H](O)[C@H](Cc1ccccc1)NC(=O)O[C@H]1COC2OCCC21 (stereo not given in full) | 6.59 | 6.01 | – | – | – | – | – |
| Cc1cc2oc(O)nc2c(C)c1OCC(=O)N[C@@H](Cc1ccccc1)C[C@H](O)[C@H](Cc1ccccc1)NC(=O)O[C@H]1COC2OCCC21 (stereo not given in full) | 6.80 | 6.30 | 61 | – | – | – | – |
| Cc1ccc(N)c(C)c1OCC(=O)N[C@@H](Cc1ccccc1)C[C@H](O)[C@H](Cc1ccccc1)NC(=O)O[C@H]1COC2OCCC21 (stereo not given in full) | 8.30 | 7.46 | 87 | – | – | – | – |
| Cc1cc(C(=O)N(C)C)cc(C)c1OCC(=O)N[C@@H](Cc1ccccc1)C[C@H](O)[C@H](Cc1ccccc1)NC(=O)O[C@H]1COC2OCCC21 (stereo not given in full) | 5.64 | 4.92 | – | – | – | – | – |
| Cc1cc(N)cc(C)c1OCC(=O)N[C@@H](Cc1ccccc1)C[C@H](O)[C@H](Cc1ccccc1)NC(=O)O[C@@H]1COC2OCCC21 (stereo not given in full) | 7.33 | 6.89 | 60 | – | – | – | – |
| Cc1cc(N)c(N)c(C)c1OCC(=O)N[C@@H](Cc1ccccc1)C[C@H](O)[C@H](Cc1ccccc1)NC(=O)O[C@H]1COC2OCCC21 (stereo not given in full) | 6.19 | 5.83 | 76 | – | – | – | – |
| Cc1cc([N+](=O)[O-])cc(C)c1OCC(=O)N[C@@H](Cc1ccccc1)C[C@H](O)[C@H](Cc1ccccc1)NC(=O)OC1COC2OCCC12 (stereo not given in full) | 6.03 | 5.09 | 53 | – | – | – | – |
| Cc1ncnc(C)c1OCC(=O)N[C@@H](Cc1ccccc1)C[C@H](O)[C@H](Cc1ccccc1)NC(=O)O[C@H]1COC2OCCC21 (stereo not given in full) | 6.09 | 5.86 | 56 | – | – | – | – |
| COc1cccc(C)c1OCC(=O)N[C@@H](Cc1ccccc1)C[C@H](O)[C@H](Cc1ccccc1)NC(=O)O[C@H]1COC2OCCC21 (stereo not given in full) | 6.45 | 5.86 | 74 | – | – | – | – |
| CCOC(=O)c1cc(C)c(OCC(=O)N[C@@H](Cc2ccccc2)C[C@H](O)[C@H](Cc2ccccc2)NC(=O)O[C@H]2COC3OCCC32)c(C)c1 (stereo not given in full) | 6.97 | 5.49 | 84 | – | – | – | – |
